Results published in US20050049200A1, “LHRH-antagonists in the treatment of fertility disorders” (priority 1996, published 2005).
Entries after “also recorded” stand apart in the source; their conditions may differ. Where a SMILES comes first, the peptide text is derived from it. [ ]: non-standard residue; d: D form. dPhe(4-Cl) = N[C@H](Cc1ccc(Cl)cc1)C(=O)O; d2Nal = N[C@H](Cc1ccc2ccccc2c1)C(=O)O; dCit = NC(=O)NCCC[C@@H](N)C(=O)O; d3Pal = N[C@H](Cc1cccnc1)C(=O)O

Columns and labels:
[1] = tested on: pituitary / follicular growth; test: Animal experiments and clinical studies with Cetrorelix (unstimulated follicular growth, pituitary responsiveness); format: in vivo
Source text: These low dosage levels present new possibilities for manipulating the time of ovulation during a normal, not exogenous gonadotropin-stimulated cycle, without affecting the viability of the growing follicle. In case of inadequate follicular growth related to treatment with LHRH-antagonists, low dose and short term administration of gonadotrophin or other trophic compounds will compensate for these effects. Subsequently, by stopping the LHRH-antagonist treatment, it is possible to let the normal ovulation occur or to induce ovulation by exogenous manipulation, if necessary. Ovulation induction was induced by the administration of standard HCG or by administration of LHRH and/or LHRH agonistic analogs. These described treatment alternatives are a departure from existing protocols, since they are possible only if preceded by treatment for LH-surge-control with an LHRH-antagonist. In animal and clinical studies with Cetrorelix it was shown that the responsiveness of the pituitary to LHRH or agonistic analogs is preserved under these conditions of treatment. Without this treatment, the pituitary cannot respond after agonistic pretreatment for LH-surge control due to receptor down-regulation. In addition, the possible use of ovulation inducing agents other than HCG results in a-reduced incidence of ovarian hyperstimulation syndrome.

[2] = tested on: patients undergoing COH for IVF/ICSI; test: Cetrorelix combined with clomifen citrate and gonadotrophins for hormonal stimulation (COH) for IVF/ICSI; format: in vivo; settings: for fertilization rate: ICSI
Protocol: Combination of the GnRH antagonist Cetrorelix, clomifen citrate(CC) and gonadotrophins for hormonal stimulation for IVF/ICSI. COH was started on day 2 after spontaneous menstrual bleeding using 100 mg CC per day for 5 or 7 days. The antagonist Cetrorelix (0.25 mg s.c.) was given starting on stimulation day 6 combined with either urinary hMG or recombinant FSH (3 ampoules/d) in a prospective randomized way. After two days of gonadotrophin injection, the dose was individualized. Human chorionic gonadotropin was given for ovulation induction, if at least 3 follicles were ≧17 mm in diameter. In total, 30 patients were included in the study. 15 were randomized in each group. Intra cytoplasmatic sperm injection (ICSI) was applied in each case.

[3] = tested on: patients undergoing COS/ART; test: Phase II clinical trial of Cetrorelix in controlled ovarian stimulation (COS/ART); format: in vivo
Protocol: The results of a phase II clinical trial are shown in Table I. A total of […] patients were treated. […] During multiple dosing, the mean days of Cetrorelix application is 6 days. 25 babies were born by the end of May 1996 (7 following multiple doses; 18 following single/dual doses). 238 patients were treated with Cetrorelix by subcutaneous injection of Cetrorelix […]-Lyophilisat. 134 patients were treated with multiple doses and 104 patients with single or dual doses. The multiple doses are 0.25 mg/day or higher. The single dose was 3 mg or higher. […]

premature LH surges = settings: short term treatment; cited from earlier work
[4] = all phase II patients, both regimens
[5] = multiple dosing, 3-7/14 days, phase II dose finding
[6] = single dose (1 day), phase II dose finding

CC(=O)N[C@H](Cc1ccc2ccccc2c1)C(=O)N[C@H](Cc1ccc(Cl)cc1)C(=O)N[C@H](Cc1cccnc1)C(=O)N[C@@H](CO)C(=O)N[C@@H](Cc1ccc(O)cc1)C(=O)N[C@H](CCCNC(N)=O)C(=O)N[C@@H](CC(C)C)C(=O)N[C@@H](CCCNC(=N)N)C(=O)N1CCC[C@H]1C(=O)N[C@H](C)C(N)=O [Cetrorelix] (Ac-[d2Nal][dPhe(4-Cl)][d3Pal]SY[dCit]LRP[dA]-NH2)
effect on normal, unstimulated follicular growth ([1]; multiple or single injections, extremely low dosage levels): arrest of the normal, unstimulated follicular growth
responsiveness of the pituitary to LHRH or agonistic analogs ([1]; under treatment for LH-surge control): preserved
ovarian hyperstimulation syndrome (OHSS) ([2]; both groups, 30 patients): No case
oocytes retrieved per cycle ([2]; hMG group): 7.7±3.8
fertilization rate ([2]; hMG group): 42%
oocytes retrieved per cycle ([2]; recombinant FSH group): 6.4±2.6
fertilization rate ([2]; recombinant FSH group): 53%
FSH secretion ([3]; FIG. 1): maintained at a natural level
individual estrogen development ([3]; FIG. 1): not affected
pregnancies obtained [3, 4]: 71
pregnancy rate [3, 4]: 30%
babies born by the end of May 1996 ([3]; both regimens together): 25
babies born by the end of May 1996 ([3]; following multiple doses): 7
babies born by the end of May 1996 ([3]; following single/dual doses): 18
pregnancy rate ([3]; multiple dose regimen): 28.4%
pregnancies ([3]; multiple dose regimen, of 134 patients): 38
premature LH surge ([3]; multiple doses of 0.25 mg or higher or single dose of 3 mg or higher, s.c.): No premature LH surge; also recorded: absolute prevention of any premature LH surge
min. effective dose (Dose/Day) [3, 5]: 0.25 min. effect, dose mg
no effect dose (Dose/Day) [3, 5]: 0.10 no effect. dose mg
min. effective dose [3, 6]: 3 min. effective dose mg
no effect dose [3, 6]: 2 no effect. Dose mg
duration of effect to prevent a premature LH surge ([3]; single dose regimen): up to 6.5 days
pregnancy rate ([3]; single/dual dosage regimen): 31.7%
pregnancies ([3]; single/dual dosage regimen, of 104 patients): 33
premature LH surges during stimulated cycles (premature LH surges): complete avoidance of premature LH surges
